Where a SMILES comes first, the peptide text is derived from it. Where no end group is shown, it is not given here.
Legend:
E. coli UB1005 = assay: Outer membrane permeabilization, NPN uptake assay; format: cell-based, Escherichia coli; conditions: FIG. 3
Protocol: Mid-log phase E. coli cells were collected and incubated with NPN in the presence of various concentrations of bactenecin (oxidized), bac2S, bactenecin (reduced). NPN was taken up into cells when the outer membrane was disrupted by the peptides. The uptake of NPN was measured by the increase of fluorescence. Polymyxin B: -.quadrature.-; Bactenecin: -+-; Bac2S: -o-; Bactenecin (Reduced): -.gradient.-
The ability of peptides to permeabilize the outer membrane was determined by the NPN assay of Loh et al. (Loh et al., Antimicrob. Agents Chemother. 19:777, 1984). Cytoplasmic membrane permeabilization was determined by using the membrane potential sensitive cyanine dye DiS-C3-(5) (Sims et al., Biochemistry 13:3315, 1974). […] The cell suspension was incubated with […] DiS-C3-(5) until DiS-C3-(5) uptake was maximal (as indicated by a stable reduction in fluorescence due to fluorescence quenching as the dye became concentrated in the cell by the membrane potential), and 100 mM KCl was added to equilibrate the cytoplasmic and external K+ concentration. […] The fluorescence reading was monitored by using a Perkin-Elmer model 650-10 S fluorescence spectrophotometer (Perkin-Elmer Corp. Norwalk, Conn.), with an excitation wavelength of 622 nm and an emission wavelength of 670 nm. […]

[1] = tested on: rat embryonic neurons, fetal rat astrocytes and human glioblastoma cells; conditions: cited from earlier work
E. coli DC2 = format: cell-based, Escherichia coli; conditions: E. coli DC2, 0.1M KCl
Protocol: The minimal inhibitory concentration (MIC) of peptides was determined by a modified two-fold microtitre broth dilution method modified from that of Steinberg et al (Steinberg, Antimicrob. Agents Chemother. 41:1738, 1997). Using the classical method (Amsterdam, Antibiotics in Laboratory Medicine (Lorian, V., ed) pp. 72-78, 1991), higher concentrations of peptides tend to precipitate in the LB broth, thus the concentrations of peptides in the sequential wells are not accurate. Also the peptides stick to the most readily available (tissue-culture treated polystyrene) 96-well microtitre plates. Therefore the 2× series of dilutions was performed in Eppendoff tubes (polypropylene) before mixing with LB broth. Serial of two fold dilutions of peptides ranging from 640 μg/ml to 1.25 μg/ml were made in 0.2% BSA, 0.01% acetic acid buffer in the Eppendoff tubes. Ten μl of each concentration was added to each corresponding well of a 96-well microtiter plate (polypropylene cluster; Costar Corporation, Cambridge, Mass.). Bacteria were grown overnight and diluted 10-5 into fresh LB broth or Todd Hewitt broth for Streptococcus. LB medium contained 10 g/1l tryptone and 5 g/yeast extract, with no salt. Todd Hewitt contained 500 g/l beef heart infusion, 20 g/l bacto neopeptone, 2 g/l bacto dextrose, 2 g/l sodium chloride, 0.4 g/l disodium phosphate, 2.5 g/l sodium carbonate. One hundred […] containing about 10^4-10^5 CFU/ml of tested bacteria was added to each well. […]
It has been proposed that the antibacterial target of cationic peptides be at the cytoplasmic membrane. […] Once inside the cells, diS-C3-(5) becomes concentrated and self-quenches its own fluorescence. If peptides form channels or otherwise disrupt the membrane, the membrane potential will be dissipated, and the DiS-C3-(5) will be released into the medium causing the fluorescence to increase, as can be detected by fluorescent spectrometry. […] Therefore the MICs of bactenecin, reduced bactenecin and bac2S in the presence of 0.1M KCl were determined and shown to be 8-16 μg/ml (i.e. 4 to 8 fold higher than in low salt). […]

Strep. mitis = assay: MIC, modified two-fold microtitre broth dilution; format: cell-based, Streptococcus mitis
From the text: (§1) Bacterial strains for antimicrobial activity testing included Escherichia coli UB1005 and its antibiotic supersusceptible derivative DC2 (Richmond et al., Antimicrob. Agents Chemother. 10:215, 1976), Pseudomonas aeruginosa K799 and its antibiotic-supersusceptible derivative Z61 (Angus et al., Antimicrob. Agents Chemother. 21:299, 1982), Salmonella typhimurium 14028s and its defensin-supersusceptible derivative MS7953s (Fields et al., Science, 243:1059, 1989), Staphylococcus aureus ATCC25923 and a clinical isolate Staphylococcus aureus SAP1007. Other Gram-positive bacterial strains include Staphylococcus epidermidis (clinical isolate) and Enterococcus faecalis ATCC29212, Listeria monocytogenes, Corynebacterium xerosis, Streptococcus pneumoniae ATTC49619, Streptococcus pyogenes ATTC19615, Streptococcus mitis.
(§2) The minimal inhibitory concentration (MIC) of peptides was determined by a modified two-fold microtitre broth dilution method modified from that of Steinberg et al (Steinberg, Antimicrob. Agents Chemother. 41:1738, 1997). Using the classical method (Amsterdam, Antibiotics in Laboratory Medicine (Lorian, V., ed) pp. 72-78, 1991), higher concentrations of peptides tend to precipitate in the LB broth, thus the concentrations of peptides in the sequential wells are not accurate. Also the peptides stick to the most readily available (tissue-culture treated polystyrene) 96-well microtitre plates. Therefore the 2× series of dilutions was performed in Eppendoff tubes (polypropylene) before mixing with LB broth. Serial of two fold dilutions of peptides ranging from 640 μg/ml to 1.25 μg/ml were made in 0.2% BSA, 0.01% acetic acid buffer in the Eppendoff tubes. Ten μl of each concentration was added to each corresponding well of a 96-well microtiter plate (polypropylene cluster; Costar Corporation, Cambridge, Mass.). Bacteria were grown overnight and diluted 10-5 into fresh LB broth or Todd Hewitt broth for Streptococcus. LB medium contained 10 g/1l tryptone and 5 g/yeast extract, with no salt. Todd Hewitt contained 500 g/l beef heart infusion, 20 g/l bacto neopeptone, 2 g/l bacto dextrose, 2 g/l sodium chloride, 0.4 g/l disodium phosphate, 2.5 g/l sodium carbonate. One hundred […] containing about 10^4-10^5 CFU/ml of tested bacteria was added to each well. The plate was incubated at 37° C. overnight. The MIC was taken as the concentration at which greater than 90% of growth inhibition was observed.

E.coli UB1005 = assay: MIC, modified two-fold microtitre broth dilution; format: cell-based, Escherichia coli
From the text: as §1, §2

Listeria monocytogenes = assay: MIC, modified two-fold microtitre broth dilution; format: cell-based
From the text: as §1, §2

Strep. pneumoniae = assay: MIC, modified two-fold microtitre broth dilution; format: cell-based, Streptococcus pneumoniae
From the text: as §1, §2

Staph. epidermidis = assay: MIC, modified two-fold microtitre broth dilution; format: cell-based, Staphylococcus epidermidis
From the text: as §1, §2

Staph. aureus = assay: MIC, modified two-fold microtitre broth dilution; format: cell-based, Staphylococcus aureus
From the text: as §1, §2

C. xerosis = assay: MIC, modified two-fold microtitre broth dilution; format: cell-based, Corynebacterium xerosis
From the text: as §1, §2

P.aeruginosa = assay: MIC, modified two-fold microtitre broth dilution; format: cell-based, Pseudomonas aeruginosa
From the text: as §1, §2

S.typhimurium = assay: MIC, modified two-fold microtitre broth dilution; format: cell-based, Salmonella typhimurium
From the text: as §1, §2

Strep. pyogenes = assay: MIC, modified two-fold microtitre broth dilution; format: cell-based, Streptococcus pyogenes
From the text: as §1, §2

E.facaelis = assay: MIC, modified two-fold microtitre broth dilution; format: cell-based, Enterococcus faecalis
From the text: as §1, §2

[2] = Table IIIB, non-linear positive-charge modification derivatives
[3] = table IIA, non-linear positive-charge modification derivatives
[4] = Table IID, linear (Group 2): reduced forms of the peptides, Bac (Oxidized) as comparator
[5] = Table IVB, non-linear hydrophobicity modification derivatives
[6] = Table IIC, linear (Group 2): reduced forms of the peptides, Bac (Oxidized) as comparator
[7] = Table IVA, non-linear hydrophobicity modification derivatives

Polymyxin B
concentration permeabilizing the outer membrane to 50% of maximal increase in fluorescence (NPN) (E. coli UB1005): 0.4 mg/mL

CC[C@H](C)[C@@H]1NC(=O)[C@H](CCCNC(=N)N)NC(=O)[C@@H](NC(=O)[C@H](CC(C)C)NC(=O)[C@@H](N)CCCNC(=N)N)CSSC[C@@H](C(=O)N[C@@H](CCCNC(=N)N)C(=O)O)NC(=O)[C@H](C(C)C)NC(=O)[C@H](CCCNC(=N)N)NC(=O)[C@H]([C@@H](C)CC)NC(=O)[C@H](C(C)C)NC(=O)[C@H](C(C)C)NC1=O [Bactenecin, RLCRIVVIRVCR] (HELM PEPTIDE1{R.L.C.R.I.V.V.I.R.V.C.R}$PEPTIDE1,PEPTIDE1,3:R3-11:R3$$$V2.0)
cytotoxicity [1]: strongly cytotoxic
MIC in the presence of 0.1M KCl (E. coli DC2): 8 to 16 µg/mL
Minimal Agglutinating Concentration, Oxidized Form (Human Red Blood Cells): 64 µg/mL

CC[C@H](C)[C@H](NC(=O)[C@H](CCCNC(=N)N)NC(=O)[C@H](CS)NC(=O)[C@H](CC(C)C)NC(=O)[C@@H](N)CCCNC(=N)N)C(=O)N[C@H](C(=O)N[C@H](C(=O)N[C@H](C(=O)N[C@@H](CCCNC(=N)N)C(=O)N[C@H](C(=O)N[C@@H](CS)C(=O)N[C@@H](CCCNC(=N)N)C(=O)O)C(C)C)[C@@H](C)CC)C(C)C)C(C)C [Bac (Reduced), RLCRIVVIRVCR] (H-RLCRIVVIRVCR-OH)
MIC in the presence of 0.1M KCl (E. coli DC2): 8 to 16 µg/mL
Minimal Agglutinating Concentration, Oxidized Form (Human Red Blood Cells): 16 µg/mL
concentration causing agglutination of human red blood cells (Human Red Blood Cells): 16000 to 32000 ng/mL

RRCPIVVIRVCR-NH2 (cysteine pairing not given here) [Bac R, P-NH2]
MIC S. mitis (Strep. mitis; [2]): 2 µg/mL
MIC E.coli UB1005 (E.coli UB1005; [3]): 2 µg/mL
MIC Listeria (Listeria monocytogenes; [2]): 1 µg/mL
MIC S. pneumonia (Strep. pneumoniae; [2]): > 64 µg/mL
MIC Staph. epidermidis (Staph. epidermidis; [2]): 32 µg/mL
Minimal Agglutinating Concentration, Oxidized Form (Human Red Blood Cells): > 64 µg/mL
MIC Staph. aureus (Staph. aureus; [2]): 32 to 64 µg/mL
MIC C. xerosis (C. xerosis; [2]): 2 µg/mL
MIC P. aeruginosa (P.aeruginosa; [3]): 16 µg/mL
MIC S. typhimurium (S.typhimurium; [3]): 16 µg/mL
MIC Strep. pyogenes (Strep. pyogenes; [2]): 16 µg/mL
MIC E.facaelis (E.facaelis; [2]): > 64 µg/mL

RRLCRIVWVIRVCRR [Bac 2R, W, tested oxidized and reduced]
MIC Strep. mitis (Strep. mitis; [4]): 2 µg/mL
MIC S. mitis (Strep. mitis; [5]): 0.25 µg/mL
MIC E.coli UB1005 (E.coli UB1005; [6]): > 64 µg/mL
MIC E.coli UB1005 (E.coli UB1005; [7]): 2 µg/mL
MIC Listeria (Listeria monocytogenes; [4]): 4 µg/mL
MIC Listeria (Listeria monocytogenes; [5]): 0.25 µg/mL
MIC Strep. pneumonia (Strep. pneumoniae; [4]): 64 µg/mL
MIC S. pneumoniae (Strep. pneumoniae; [5]): 8 µg/mL
MIC Staph. epidermidis (Staph. epidermidis; [4]): 32 µg/mL
MIC Staph. epidermidis (Staph. epidermidis; [5]): 1 µg/mL
Minimal Agglutinating Concentration, Oxidized Form (Human Red Blood Cells): 32 µg/mL
Minimal Agglutinating Concentration, Reduced Form (Human Red Blood Cells): 8 µg/mL
concentration causing agglutination of human red blood cells (Human Red Blood Cells): 16000 to 32000 ng/mL
MIC Staph. aureus (Staph. aureus; [4]): > 64 µg/mL
MIC Staph. aureus (Staph. aureus; [5]): 2 µg/mL
MIC C. xerosis (C. xerosis; [4]): 2 µg/mL
MIC C. xerosis (C. xerosis; [5]): 0.25 µg/mL
MIC P. aeruginosa (P.aeruginosa; [6]): > 64 µg/mL
MIC P. aeruginosa (P.aeruginosa; [7]): 2 µg/mL
MIC S. typhimurium (S.typhimurium; [6]): > 64 µg/mL
MIC S. typhimurium (S.typhimurium; [7]): 2 µg/mL
MIC Strep. pyogeness (Strep. pyogenes; [4]): 32 µg/mL
MIC Strep. pyogenes (Strep. pyogenes; [5]): 1 µg/mL
MIC E.facaelis (E.facaelis; [4]): > 64 µg/mL
MIC E.facaelis (E.facaelis; [5]): 2 µg/mL

RLSRIVVIRVSR [Bac 2S, RLSRIVVIRVSR]
MIC in the presence of 0.1M KCl (E. coli DC2): 8 to 16 µg/mL
Minimal Agglutinating Concentration, Oxidized Form (Human Red Blood Cells): > 64 µg/mL

Source: patent US6172185A, “Antimicrobial cationic peptide derivatives of bactenecin” (priority 1998, dated 2001)
